For one experiment, the target named is T1, mTORC1 (Homo sapiens, UniProt P42345).
T1 construct: the following experiments were conducted in HeLa cells; endogenous in cells; host or cells: HeLa
Put plainly: mTORC1 inhibitory activity in HeLa cells (p70S6K Thr389 phosphorylation, Western blot). The experiment is classed as cell-based. The settings on record: for remaining activity at 40 µM: read-out: pThr389-S6K/S6K (% control); for inhibition at 40 µM: HeLa, 9 h, read-out: reduction in p70S6K Thr389 phosphorylation compared to the control group. As to the method:
(§1) Specifically, HeLa cells were cultured in a 5% CO2 incubator at 37° C. in DMEM (Dulbecco's Modified Eagles Media) medium supplemented with 10% FBS, penicillin (100 unit/ml), and streptomycin (100 μg/ml). Cultivation was started by seeding 4×10^5 cells in a 100 mm culture dish, and subculture was carried out every 3 days.
(§2) Human cell line HeLa cells were seeded in a 60 mm culture dish at a density of 2×10^5 cells/plate, and cultured for 24 hours. Then, HeLa cells were treated with 70 types of compounds at a concentration of 40 μM each for 9 hours. HeLa cells were washed twice with cold 1×PBS, and then lysed with 100 μl of RIPA buffer (50 mM Tris-HCl (pH7.4), 0.25% sodium deoxycholate, 50 mM NaF, 1% NP-40, 150 mM NaCl, 1 mM β-glycerophosphate, 1 mM PMSF, 1 mM NaVO4, 1 μg/ml leupeptin, 1 μg/ml pepstatin A, 10 nM calyculin A, 10 μg/ml aprotinin, 1 mM EDTA) to hemolyze the cell membrane. Then, the lysates were centrifuged at 12,000 rpm at 4° C. for 10 minutes to collect the supernatant, which is cell lysate. Protein concentration in the cell lysate was determined using the BCA protein assay kit (Thermo Fisher Scientific), and equal amounts of protein were separated by SDS-PAGE.
(§3) Western blot analysis was performed by the following method. […] After washing the membrane three times for 5 minutes each with TBS-T buffer, it was incubated with primary antibodies diluted in TBS-T buffer containing 5% skim milk or 5% BSA overnight at 4° C. Subsequently, the membrane was washed three times for 5 minutes each with TBS-T buffer, and then incubated with secondary antibodies diluted in TBS-T buffer containing 5% skim milk at room temperature for 30 minutes. The membrane was washed five times for 5 minutes each with TBS-T buffer containing 5% skim milk, and then the protein bands bound by the secondary antibody were detected using a chemiluminescence method. The primary antibodies used were Akt (cell signaling, #4691), pAkt(S473) (Cell signaling, #4060), p70S6K (Cell signaling, #S6198), pp70S6K(T389) (cell signaling, #9205S), LC3-II (MBL, #PM036), and the secondary antibodies used were HRP conjugated anti-rabbit (Jackson immunoresearch laboratory, #711-035-152) and HRP conjugated anti-mouse IgG (Jackson immunoresearch laboratory, #515-035-072).
As an mTORC1 activity indicator in HeLa cells, the level of p70S6K Thr389 phosphorylation was selected as a marker, and the level of phosphor-p70S6K (Thr389) signal measured by Western blot analysis was normalized to a level of pan-p70S6K signal, and then expressed as a percentage of the control group treated with only DMSO, which is a vehicle.
(In general: A western blot detects proteins with antibodies after separation by electrophoresis.)

For another experiment, the system named is LC3-II. Put plainly: LC3-II formation as indicator of autophagy in HeLa cells (Western blot). The experiment is classed as cell-based, human. The conditions noted are these: Homo sapiens, 9 hours, read-out: LC3-II (% control). As to the method: as §1, §2, §3
LC3-II formation was selected as an indicator of autophagy in HeLa cells, and the LC3-II signal obtained from Western blot analysis was normalized to the pan-Akt signal and the data were expressed as a percentage relative to the control group treated with DMSO only, which is a vehicle.

Another experiment addresses T2, mTORC2 (Homo sapiens, UniProt P42345).
T2 construct: the following experiments were conducted in HeLa cells; endogenous in cells; host or cells: HeLa
Put plainly: mTORC2 inhibitory activity in HeLa cells (Akt Ser473 phosphorylation, Western blot). The experiment is classed as cell-based. The conditions noted are these: for selective inhibition of mTORC2: 40 μM, versus mTORC1; for selective inhibition of mTORC2 / remaining activity at 40 µM: 9 hours; for remaining activity at 40 µM: read-out: pSer473-AKT/AKT (% control); for inhibition at 40 µM: HeLa, 9 h, read-out: reduction in Akt Ser473 phosphorylation compared to the control group. The protocol: as §1, §2, §3
As an mTORC2 activity indicator in HeLa cells, the level of Akt Ser473 phosphorylation was selected as a marker, and the phosphor-Akt (Ser473) signal obtained from Western blot analysis was normalized to the pan-Akt signal, and the data were expressed as a percentage relative to the control group treated with DMSO only, which is a vehicle.

With `O=C1c2cc(F)ccc2COc2cc3c(cc21)OCO3` [HN2203, 9-fluoro[2]benzoxepino[3,4-f]-1,3-benzodioxol-11(6H)-one], the remaining activity at 40 µM on mTORC1 (9 hours) is 179%. The activity at 40 µM in the experiment with LC3-II was determined as 119%. Further, on mTORC2, the “selective inhibition of mTORC2” value was “selectively inhibit mTORC2”, the remaining activity at 40 µM stood at 28% and the inhibition at 40 µM was greater than 20%.
The like results for `CN(C)c1cc2c(cc1F)C(=O)c1cc3c(cc1OC2)OCO3` [HN2209, 8-(dimethylamino)-9-fluoro[2]benzoxepino[3,4-f]-1,3-benzodioxol-11(6H)-one] were, in that order, 191%, 124%, “selectively inhibit mTORC2”, 54% and greater than 20%.
With `O=C1c2cc(F)c(N3CCCCC3)cc2COc2cc3c(cc21)OCO3` [HN2211, 8-(piperidinyl)-9-fluoro[2]benzoxepino[3,4-f]-1,3-benzodioxol-11(6H)-one], the remaining activity at 40 µM at mTORC1 (9 hours) is 77%; at mTORC2 it was 118%. Further, the inhibition at 40 µM on mTORC1 is greater than 20%. For the same molecule, in the experiment on LC3-II, the activity at 40 µM worked out at 122%.
For `O=C1c2cc(-c3ccc(Cl)cc3)ccc2COc2cc3c(cc21)OCO3` [HN2214, 9-(4-chlorophenyl)[2]benzoxepino[3,4-f]-1,3-benzodioxol-11(6H)-one], the remaining activity at 40 µM at mTORC1 (9 hours) worked out at 99%. The activity at 40 µM with LC3-II was 154%. Moreover, on mTORC2, the “selective inhibition of mTORC2” value is on record as “selectively inhibit mTORC2”, the remaining activity at 40 µM came out at 67% and the inhibition at 40 µM is greater than 20%.
With `O=C1c2cc(-c3ccoc3)ccc2COc2cc3c(cc21)OCO3` [HN2216, 9-(3-furanyl)[2]benzoxepino[3,4-f]-1,3-benzodioxol-11(6H)-one], the “increase in S6K Thr389 phosphorylation” value on mTORC1 (40 μM, 9 hours) turned out to be 21%. Besides, the remaining activity at 40 µM on mTORC1 (9 hours) was 121%. For the same molecule, the activity at 40 µM with LC3-II was found to be 99%. In addition, at mTORC2, the “selective inhibition of mTORC2” value is “selectively inhibit mTORC2”, the remaining activity at 40 µM was determined as 64% and the inhibition at 40 µM was greater than 20%.
Take `Cc1ccc(-c2ccc3c(c2)C(=O)c2cc4c(cc2OC3)OCO4)cc1` [HN2217, 9-(p-tolyl)[2]benzoxepino[3,4-f]-1,3-benzodioxol-11(6H)-one]: the remaining activity at 40 µM on mTORC1 (9 hours) stood at 224%. Moreover, the activity at 40 µM with LC3-II was determined as 149%. Further, on mTORC2, the “selective inhibition of mTORC2” value is on record as “selectively inhibit mTORC2”, the remaining activity at 40 µM worked out at 38% and the inhibition at 40 µM is greater than 20%.
In the case of `O=C1c2cc(F)c(N3CCC(Cc4ccccc4)CC3)cc2COc2cc3c(cc21)OCO3` [HN2222, 8-(4-benzylpiperidin-1-yl)-9-fluoro[2]benzoxepino[3,4-f]-1,3-benzodioxol-11(6H)-one], at mTORC1 (9 hours), the remaining activity at 40 µM amounted to 95%. In addition, the activity at 40 µM with LC3-II was 89%. Moreover, at mTORC2, the “selective inhibition of mTORC2” value is “selectively inhibit mTORC2”, the remaining activity at 40 µM was 69% and the inhibition at 40 µM is greater than 20%.
The like results for `O=C1c2cc3c(cc2OCc2c1ccc(F)c2F)OCO3` [HN2225, 7,8-difluoro[2]benzoxepino[3,4-f]-1,3-benzodioxol-11(6H)-one] were, in that order, 100%, 100%, “selectively inhibit mTORC2”, 66% and greater than 20%.
For the molecule `O=C1c2cc3c(cc2OCc2c1ccc(NC1CCCCC1)c2F)OCO3` [HN2231, 8-(cyclohexylamino)-7-fluoro[2]benzoxepino[3,4-f]-1,3-benzodioxol-11(6H)-one], the remaining activity at 40 µM at mTORC1 (9 hours) was determined as 49%; on mTORC2 it was 100%. At mTORC1, the inhibition at 40 µM was greater than 20%. For the same molecule, the activity at 40 µM in the experiment on LC3-II turned out to be 122%.
For the molecule `O=C1c2cc3c(cc2OCc2c1ccc(N1CCC(Cc4ccccc4)CC1)c2F)OCO3` [HN2232, 8-(4-benzylpiperidin-1-yl)-7-fluoro[2]benzoxepino[3,4-f]-1,3-benzodioxol-11(6H)-one], the remaining activity at 40 µM on mTORC1 (9 hours) stood at 136%. In addition, the activity at 40 µM in the experiment with LC3-II stood at 64%. On mTORC2, the “selective inhibition of mTORC2” value was “selectively inhibit mTORC2”, the remaining activity at 40 µM was found to be 48% and the inhibition at 40 µM is greater than 20%.
In the case of `COc1ccc(CCNc2ccc3c(c2F)COc2cc4c(cc2C3=O)OCO4)cc1` [HN2233, 8-((4-methoxyphenethyl)amino)-7-fluoro[2]benzoxepino[3,4-f]-1,3-benzodioxol-11(6H)-one], the remaining activity at 40 µM on mTORC1 (9 hours) was determined as 107%. Besides, the activity at 40 µM in the experiment on LC3-II is 121%. At mTORC2, the “selective inhibition of mTORC2” value is on record as “selectively inhibit mTORC2”, the remaining activity at 40 µM worked out at 74% and the inhibition at 40 µM was greater than 20%.
The like results for `CS(=O)(=O)Nc1cc2c(cc1F)C(=O)c1cc3c(cc1OC2)OCO3` [HN2301, N-(9-fluoro-11-oxo-6,11-dihydro-[1,3]dioxolo[4′,5′:4,5]benzo[1,2-b]benzo[e]oxepin-8-yl)methanesulfonamide] were, in that order, 81%, 96%, “selectively inhibit mTORC2”, 54% and greater than 20%.
In the case of `COc1cc2c(cc1OC)C(=O)c1cc(-c3cc(OC)c(OC)c(OC)c3)ccc1CS2` [HN2305, 2,3-dimethoxy-9-(3,4,5-trimethoxyphenyl)dibenzo[b,e]thiepin-11(6H)-one], the remaining activity at 40 µM at mTORC1 (9 hours) is 64%; on mTORC2, 47%. The inhibition at 40 µM on mTORC1 and on mTORC2 was greater than 20% throughout.
For the molecule `COc1ccc(-c2ccc3c(c2)C(=O)c2cc(OC)c(OC)cc2SC3)cc1` [HN2306, 2,3-dimethoxy-9-(4-methoxyphenyl)dibenzo[b,e]thiepin-11(6H)-one], the remaining activity at 40 µM at mTORC1 (9 hours) is 257%. Further, at mTORC2, the “selective inhibition of mTORC2” value is “selectively inhibit mTORC2”, the remaining activity at 40 µM was determined as 64% and the inhibition at 40 µM was greater than 20%.
On the same counts, the results for `COc1cc2c(cc1OC)C(=O)c1cc(-c3ccc(C)cc3)ccc1CS2` [HN2307, 2,3-dimethoxy-9-(p-tolyl)dibenzo[b,e]thiepin-11(6H)-one] are 106%, “selectively inhibit mTORC2”, 72% and greater than 20%.
Turning to `COc1cc2c(cc1OC)C(=O)c1cc(-c3ccc(Cl)cc3)ccc1CS2` [HN2309, 9-(4-chlorophenyl)-2,3-dimethoxydibenzo[b,e]thiepin-11(6H)-one], at mTORC1 (9 hours), the remaining activity at 40 µM worked out at 106%. Further, on mTORC2, the “selective inhibition of mTORC2” value is “selectively inhibit mTORC2”, the remaining activity at 40 µM came out at 66% and the inhibition at 40 µM is greater than 20%.
Take `COc1cc2c(cc1OC)C(=O)c1cc(F)c(NCc3ccccc3)cc1CC2` [HN2317, 2-(benzylamino)-3-fluoro-7,8-dimethoxy-10,11-dihydro-5H-dibenzo[a,d][7]annulen-5-one]: the remaining activity at 40 µM at mTORC1 (9 hours) was determined as 69%; at mTORC2 it was 107%. For the same molecule, the inhibition at 40 µM on mTORC1 is greater than 20%.

These data come from patent publication US20260265267A1, “NOVEL COMPOUNDS WITH MTORC2-INHIBITORY ACTIVITY AND USES THEREOF” (Aliad Biopharma, priority 2023, published 2026).
